Reference: US20260159511A1, “SMALL MOLECULE STING ANTAGONISTS” (CURADEV PHARMA PVT. LTD., priority 2021, published 2026)

Test system: IRF pathway in THP1-Dual™ cells, THP-1 (HAQ)
Assay: Reporter gene expression assay in THP-1 cells (THP1-Dual, IRF pathway Lucia luciferase reporter, 2′,3′-cGAMP stimulation)
Type: cell-based, human
Conditions: Homo sapiens; THP1-Dual cells preincubated with compound 10 minutes, stimulation with 5 μM 2′,3′-cGAMP for 20 hr, QUANTI-Luc readout of the supernatant; read-out: THP-1 (HAQ) Activity (IC50 value range)
Description: Reporter Gene Expression Assay in THP-1 Cells
THP1-Dual™ cells (Invivogen) were derived from the human THP-1 monocyte cell line by stable integration of two inducible reporter constructs. As a result, THP1-Dual™ cells allow the simultaneous study of the IRF pathway, by assessing the activity of a secreted luciferase (Lucia) and the NF-κB pathway, by monitoring the activity of secreted SEAP. 5×10^4 THP1-Dual™ cells were seeded in 384-well plates in growth medium and preincubated with novel compounds for 10 minutes followed by stimulation with 5 μM 2′,3′-cGAMP. After 20 hr of stimulation the supernatant was removed and the IRF pathway reporter protein was readily measured in the cell culture supernatant using QUANTI-Luc™ (Invivogen), a luciferase detection reagent on a Spectramax i3X luminometer.

IC50 [nM] | Structure (SMILES)
1000 to 10000 | NC(=O)c1ccccc1CN1C(=O)CSc2ccc(NC(=O)Nc3c[nH]c4ccccc34)cc21 [Example 22, 2-((6-(3-(1H-indol-3-yl)ureido)-3-oxo-2,3-dihydro-4H-benzo[b][1,4]thiazin-4-yl)methyl)benzamide]
1000 to 10000 | NC(=O)c1ccc(CN2C(=O)CSc3ccc(NC(=O)Nc4c[nH]c5ccccc45)cc32)cc1 [Example 23, 4-((6-(3-(1H-indol-3-yl)ureido)-3-oxo-2,3-dihydro-4H-benzo[b][1,4]thiazin-4-yl)methyl)benzamide]
1000 to 10000 | O=C(Nc1ccc2c(c1)N(Cc1cccnc1)C(=O)CS2)Nc1c[nH]c2ccccc12 [Example 24, 1-(1H-indol-3-yl)-3-(3-oxo-4-(pyridin-3-ylmethyl)-3,4-dihydro-2H-benzo[b][1,4]thiazin-6-yl)urea]
< 1000 | COc1ccc(F)c(CN2C(=O)CSc3ccc(NC(=O)Nc4c[nH]c5ccccc45)cc32)c1Cl [Example 25, 1-(4-(2-chloro-6-fluoro-3-methoxybenzyl)-3-oxo-3,4-dihydro-2H-benzo[b][1,4]thiazin-6-yl)-3-(1H-indol-3-yl)urea]
< 1000 | O=C(Nc1ccc2c(c1)N(Cc1noc3ccccc13)C(=O)CS2)Nc1c[nH]c2ccccc12 [Example 26, 1-(4-(benzo[d]isoxazol-3-ylmethyl)-3-oxo-3,4-dihydro-2H-benzo[b][1,4]thiazin-6-yl)-3-(1H-indol-3-yl)urea]
< 1000 | CC1Sc2ccc(NC(=O)Nc3c[nH]c4ccccc34)cc2N(Cc2c(F)cccc2Cl)C1=O (stereo not shown) [Example 27, 1-(4-(2-chloro-6-fluorobenzyl)-2-methyl-3-oxo-3,4-dihydro-2H-benzo[b][1,4]thiazin-6-yl)-3-(1H-indol-3-yl)urea]
1000 to 10000 | O=C(Nc1ccc2c(c1)N(Cc1c(F)cccc1Cl)C(=O)CS2)Nc1c[nH]c2ccc(Cl)cc12 [Example 28, 1-(5-chloro-1H-indol-3-yl)-3-(4-(2-chloro-6-fluorobenzyl)-3-oxo-3,4-dihydro-2H-benzo[b][1,4]thiazin-6-yl)urea]
< 1000 | CC1Sc2ccc(NC(=O)Nc3c[nH]c4ccccc34)cc2N(Cc2ccccc2)C1=O (stereo not shown) [Example 29, 1-(4-benzyl-2-methyl-3-oxo-3,4-dihydro-2H-benzo[b][1,4]thiazin-6-yl)-3-(1H-indol-3-yl)urea]
< 1000 | CC1Sc2cc(NC(=O)Nc3c[nH]c4ccccc34)ccc2N(Cc2ccccc2)C1=O (stereo not shown) [Example 30, 1-(4-benzyl-2-methyl-3-oxo-3,4-dihydro-2H-benzo[b][1,4]thiazin-7-yl)-3-(1H-indol-3-yl)urea]
< 1000 | CC1Sc2ccc(NC(=O)Nc3c[nH]c4ccc(F)cc34)cc2N(Cc2cc(F)cc(F)c2)C1=O (stereo not shown) [Example 31, 1-(4-(3,5-difluorobenzyl)-2-methyl-3-oxo-3,4-dihydro-2H-benzo[b][1,4]thiazin-6-yl)-3-(5-fluoro-1H-indol-3-yl)urea]
< 1000 | O=C(Nc1ccc2c(c1)N(Cc1cc(F)cc(F)c1)C(=O)CS2)Nc1c[nH]c2ccc(F)cc12 [Example 32, 1-(4-(3,5-difluorobenzyl)-3-oxo-3,4-dihydro-2H-benzo[b][1,4]thiazin-6-yl)-3-(5-fluoro-1H-indol-3-yl)urea]
< 1000 | CC1Sc2ccc(NC(=O)Nc3c[nH]c4ccccc34)cc2N(Cc2cc(F)cc(F)c2)C1=O (stereo not shown) [Example 33, 1-(4-(3,5-difluorobenzyl)-2-methyl-3-oxo-3,4-dihydro-2H-benzo[b][1,4]thiazin-6-yl)-3-(1H-indol-3-yl)urea]
< 1000 | O=C(Nc1ccc2c(c1)N(Cc1c(F)ccc(O)c1Cl)C(=O)CS2)Nc1c[nH]c2ccccc12 [Example 34, 1-(4-(2-chloro-6-fluoro-3-hydroxybenzyl)-3-oxo-3,4-dihydro-2H-benzo[b][1,4]thiazin-6-yl)-3-(1H-indol-3-yl)urea]

The next lines start with the compound.

Structure (SMILES) | IC50 [nM]
O=C(Nc1ccc2c(c1)N(Cc1ccccc1)C(=O)CS2)Nc1c[nH]c2ccc(F)cc12 [Example 1, 1-(4-benzyl-3-oxo-3,4-dihydro-2H-benzo[b][1,4]thiazin-6-yl)-3-(5-fluoro-1H-indol-3-yl)urea] | < 1000
O=C(Nc1ccc2c(c1)OCC(=O)N2Cc1c(F)cccc1Cl)Nc1c[nH]c2ccccc12 [Example 2, 1-(4-(2-Chloro-6-fluorobenzyl)-3-oxo-3,4-dihydro-2H-benzo[b][1,4]oxazin-7-yl)-3-(1H-indol-3-yl)urea] | < 1000
O=C(Nc1ccc2c(c1)OCC(=O)N2Cc1ccccc1)Nc1c[nH]c2ccccc12 [Example 3, 1-(4-benzyl-3-oxo-3,4-dihydro-2H-benzo[b][1,4]oxazin-7-yl)-3-(1H-indol-3-yl)urea] | < 1000
O=C(Nc1ccc2c(c1)N(Cc1ccccc1)C(=O)CO2)Nc1c[nH]c2ccccc12 [Example 4, 1-(4-benzyl-3-oxo-3,4-dihydro-2H-benzo[b][1,4]oxazin-6-yl)-3-(1H-indol-3-yl)urea] | < 1000
O=C(Nc1ccc2c(c1)N(Cc1ccccc1)C(=O)CS2)Nc1c[nH]c2ncc(Cl)cc12 [Example 5, 1-(4-benzyl-3-oxo-3,4-dihydro-2H-benzo[b][1,4]thiazin-6-yl)-3-(5-chloro-1H-pyrrolo[2,3-b]pyridin-3-yl)urea] | < 1000
O=C(Nc1ccc2c(c1)N(Cc1ccccc1)C(=O)CS2)Nc1c[nH]c2ncc(Br)cc12 [Example 6, 1-(4-benzyl-3-oxo-3,4-dihydro-2H-benzo[b][1,4]thiazin-6-yl)-3-(5-bromo-1H-pyrrolo[2,3-b]pyridin-3-yl)urea] | < 1000
O=C(Nc1ccc2c(c1)SCC(=O)N2Cc1ccccc1)Nc1c[nH]c2ccccc12 [Example 7, 1-(4-benzyl-3-oxo-3,4-dihydro-2H-benzo[b][1,4]thiazin-7-yl)-3-(1H-indol-3-yl)urea] | < 1000
O=C(Nc1ccc2c(c1)N(Cc1c(F)cccc1Cl)C(=O)CO2)Nc1c[nH]c2ccccc12 [Example 8, 1-(4-(2-chloro-6-fluorobenzyl)-3-oxo-3,4-dihydro-2H-benzo[b][1,4]oxazin-6-yl)-3-(1H-indol-3-yl)urea] | < 1000
Cc1[nH]c2ccccc2c1NC(=O)Nc1ccc2c(c1)N(Cc1ccccc1)C(=O)CS2 [Example 9, 1-(4-benzyl-3-oxo-3,4-dihydro-2H-benzo[b][1,4]thiazin-6-yl)-3-(2-methyl-1H-indol-3-yl)urea] | 1000 to 10000
O=C(Nc1ccc2c(c1)N(Cc1ccccc1)C(=O)CS2)Nc1c[nH]c2ccc(Cl)cc12 [Example 10, 1-(4-benzyl-3-oxo-3,4-dihydro-2H-benzo[b][1,4]thiazin-6-yl)-3-(5-chloro-1H-indol-3-yl)urea] | < 1000
O=C(Nc1ccc2c(c1)N(Cc1c(F)cccc1Cl)C(=O)CS2)Nc1c[nH]c2ccccc12 [Example 11, 1-(4-(2-chloro-6-fluorobenzyl)-3-oxo-3,4-dihydro-2H-benzo[b][1,4]thiazin-6-yl)-3-(1H-indol-3-yl)urea] | < 1000
O=C(Nc1ccc2c(c1)SCC(=O)N2Cc1c(F)cccc1Cl)Nc1c[nH]c2ccccc12 [Example 12, 1-(4-(2-chloro-6-fluorobenzyl)-3-oxo-3,4-dihydro-2H-benzo[b][1,4]thiazin-7-yl)-3-(1H-indol-3-yl)urea] | < 1000
O=C(Nc1ccc2c(c1)N(Cc1ccccc1)C(=O)CS2)Nc1c[nH]c2ncccc12 [Example 13, 1-(4-benzyl-3-oxo-3,4-dihydro-2H-benzo[b][1,4]thiazin-6-yl)-3-(1H-pyrrolo[2,3-b]pyridin-3-yl)urea] | < 1000
O=C(Nc1ccc2c(c1)N(Cc1ccccc1)C(=O)CS2)Nc1c[nH]c2ccncc12 [Example 14, 1-(4-benzyl-3-oxo-3,4-dihydro-2H-benzo[b][1,4]thiazin-6-yl)-3-(1H-pyrrolo[3,2-c]pyridin-3-yl)urea] | 1000 to 10000
O=C(Nc1ccc2c(c1)N(Cc1ccccc1)C(=O)CS2)Nc1c[nH]c2cnccc12 [Example 15, 1-(4-benzyl-3-oxo-3,4-dihydro-2H-benzo[b][1,4]thiazin-6-yl)-3-(1H-pyrrolo[2,3-c]pyridin-3-yl)urea] | < 1000
CN1C(=O)CSc2ccc(NC(=O)Nc3c[nH]c4ccccc34)cc21 [Example 16, 1-(1H-indol-3-yl)-3-(4-methyl-3-oxo-3,4-dihydro-2H-benzo[b][1,4]thiazin-6-yl)urea] | < 1000
O=C(Nc1ccc2c(c1)N(Cc1ccccc1)C(=O)CS2)Nc1c[nH]c2cccnc12 [Example 17, 1-(4-benzyl-3-oxo-3,4-dihydro-2H-benzo[b][1,4]thiazin-6-yl)-3-(1H-pyrrolo[3,2-b]pyridin-3-yl)urea] | 1000 to 10000
O=C(Nc1ccc2c(c1)N(Cc1cc(F)cc(F)c1)C(=O)CS2)Nc1c[nH]c2ccccc12 [Example 18, 1-(4-(3,5-difluorobenzyl)-3-oxo-3,4-dihydro-2H-benzo[b][1,4]thiazin-6-yl)-3-(1H-indol-3-yl)urea] | < 1000
O=C(Nc1ccc2c(c1)N(Cc1ccccn1)C(=O)CS2)Nc1c[nH]c2ccccc12 [Example 19, 1-(1H-indol-3-yl)-3-(3-oxo-4-(pyridin-2-ylmethyl)-3,4-dihydro-2H-benzo[b][1,4]thiazin-6-yl)urea] | 1000 to 10000
O=C(Nc1ccc2c(c1)N(Cc1ccncc1)C(=O)CS2)Nc1c[nH]c2ccccc12 [Example 20, 1-(1H-indol-3-yl)-3-(3-oxo-4-(pyridin-4-ylmethyl)-3,4-dihydro-2H-benzo[b][1,4]thiazin-6-yl)urea] | 1000 to 10000
NC(=O)c1cccc(CN2C(=O)CSc3ccc(NC(=O)Nc4c[nH]c5ccccc45)cc32)c1 [Example 21, 3-((6-(3-(1H-indol-3-yl)ureido)-3-oxo-2,3-dihydro-4H-benzo[b][1,4]thiazin-4-yl)methyl)benzamide] | 1000 to 10000
